The test system of experiment [1] is PBMCs. The experiment in a line: PHA-induced proliferation of PBMC in the presence of albumin peptides and/or dHSA. The experiment is classed as cell-based, human. To be noted: PBMCs from two healthy controls; two PHA concentrations.
In experiment [2] the test system is natural killer (NK) cells. The experiment in a line: Cytotoxic activity of natural killer (NK) cells against K562 (NKTEST, flow cytometry). In kind it is cell-based, human. To be noted: four healthy donors; peptides 10 ug/ml; effector:target ratio 40:1. Here is the method:
Mononuclear cells were separated by standard Ficoll-paque Plus (Pharmacia AB, Sweden) density gradient centrifugation from heparinized blood obtained from healthy donors. NK cell cytotoxic activity of the mononuclear cells was then tested using a commercial kit (NKTEST, Orpegen Pharma GmbH, Heidelberg, Germany) following the manufacturers protocol. Briefly, the kit contains cryopreserved, NK-sensitive target cells (K562) labelled with a lipophilic green fluorescent membrane dye, which enables discrimination of effector and target cells. After incubation with effector cells, killed target cells are identified by a DNA-stain, which penetrates and specifically stain the nuclei of dead target cells. This way the percentage of killed targets can be determined by flow cytometry. The mononuclear cells were pre-incubated for 30 min at 37° C. with the indicated peptides (peptides have been described previously) at 10 ug/ml. Target cells were then added, giving an effector:target ratio of 40:1, and the cell mixture incubated at 37° C. for 3-4 hours. Samples were analysed on a FACSCalibur (BD Biosciences, San Jose, Calif.).
Background: Flow cytometry measures light scatter and fluorescence of single cells or particles in a stream.

In experiment [3] the test system is cell surface receptors of immune cells (ACS). The experiment in a line: Adsorption of enzyme fragmented dHSA on affinity column with biotinylated cell surface proteins (ACS), MALDI-TOF ms. The experiment is classed as binding, human.
Experiment [4] relates to CD25. The experiment in a line: Binding of biotinylated IL-2 to CD25-Fc fusion protein on ELISA plates with or without peptide 3028. To be noted: CD25-Fc on protein G coated plates. The source says: Based on this observation, the effect of peptide 3028 on the binding of IL-2 to CD25 was studied. […] Amazingly, the binding of IL-2 to CD25 was enhanced by peptide 3028, indicating a three-part interaction between IL-2, CD25 and 3028.

In experiment [5] the test system is PBMC. As to the kind of experiment: Human ex vivo model: IL-2 induced proliferation of PBMC in the presence of albumin peptides.

CD25, sequence (P01589 22-240 limits assumed): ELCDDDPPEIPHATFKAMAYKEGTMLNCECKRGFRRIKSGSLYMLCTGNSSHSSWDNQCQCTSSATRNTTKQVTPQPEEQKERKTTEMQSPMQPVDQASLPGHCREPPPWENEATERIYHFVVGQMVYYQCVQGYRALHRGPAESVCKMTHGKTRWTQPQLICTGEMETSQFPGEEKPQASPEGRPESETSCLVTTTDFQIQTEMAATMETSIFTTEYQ

For the sequence VFDEFKPLVEEPQNLIK [peptide 3028], in experiment [1], the “effect on dHSA modulated PHA stimulated proliferation” value is reported as “inhibited the stimulatory activity of dHSA”. The “effect on percent specific lysis of K562 target cells” value in experiment [2] is listed as “reduced the percent specific lysis of K562 target cells by all four donors”. The Per cent adsorbed is recorded as 0.60 Per cent in experiment [3] (Table 5 A, peptides generated by trypsin degradation of dHSA) and 0.60 Per cent in experiment [3] (Table 5 B, trypsin peptides selected for synthesis). Also, the “effect on the binding of IL-2 to CD25” value in experiment [4] is recorded as “enhanced”. Moreover, the “effect on IL-2 induced proliferation” value in experiment [5] (cancer patient PBMCs) is on record as “inhibitory activity”; in experiment [5] (human ex vivo model, PBMCs from healthy controls, peptides 10 μg/ml), “regularly inhibits IL-2 induced proliferation”.

The record behind these values is patent US9796777B2, “Methods of treating malignant tumors” (Canimguide Therapeutics AB, priority 2007, dated 2017).
